According to ChEMBL document CHEMBL4033663, “Design, combinatorial synthesis and biological evaluations of novel 3-amino-1'-((1-aryl-1H-1,2,3-triazol-5-yl)methyl)-2'-oxospiro[benzo[a] pyrano[2,3-c]phenazine-1,3'-indoline]-2-carbonitrile antitumor hybrid molecules” (Eur J Med Chem, 2017):

The compounds below were run on HUVEC (assay: Antiproliferative activity against human HUVEC cells after 48 hrs by MTT assay). Conditions: not given.
Format: cell-based
`N#CC1=C(N)Oc2c(N)cc3nc4ccccc4nc3c2C12C(=O)N(Cc1cnnn1-c1c(Cl)cc(Cl)cc1Cl)c1ccccc12` (centres undefined) gave an IC50 of 18.3 µM. In the case of `Cc1ccc(-n2nncc2CN2C(=O)C3(C(C#N)=C(N)Oc4c3c3nc5ccccc5nc3c3ccccc43)c3ccccc32)cc1C` (centres undefined), the IC50 is reported as over 50 µM. With `Cc1ccc(-n2nncc2CN2C(=O)C3(C(C#N)=C(N)Oc4c3c3nc5ccccc5nc3c3ccccc43)c3ccccc32)cc1Cl` (centres undefined) the IC50 was over 50 µM. With `N#CC1=C(N)Oc2c(c3nc4ccccc4nc3c3ccccc23)C12C(=O)N(Cc1cnnn1-c1cccc(Br)c1)c1ccccc12` (centres undefined) the IC50 was over 50 µM. For `Cc1ccc(Cl)cc1-n1nncc1CN1C(=O)C2(C(C#N)=C(N)Oc3c(N)cc4nc5ccccc5nc4c32)c2ccccc21` (centres undefined), the IC50 was over 50 µM. `N#CC1=C(N)Oc2c(c3nc4ccccc4nc3c3ccccc23)C12C(=O)N(Cc1cnnn1-c1ccc(Br)cc1)c1ccccc12` (centres undefined) was tested, and the IC50 was over 50 µM. Compound `CC(=O)Nc1ccc(-n2nncc2CN2C(=O)C3(C(C#N)=C(N)Oc4c3c3nc5ccccc5nc3c3ccccc43)c3ccccc32)cc1` (centres undefined) has an IC50 of over 50 µM. `COc1ccccc1-n1nncc1CN1C(=O)C2(C(C#N)=C(N)Oc3c2c2nc4ccccc4nc2c2ccccc32)c2ccccc21` (centres undefined) showed an IC50 of over 50 µM. `Cc1ccc(-n2nncc2CN2C(=O)C3(C(C#N)=C(N)Oc4c(N)cc5nc6ccccc6nc5c43)c3ccccc32)cc1Cl` (centres undefined) gave an IC50 of over 50 µM.

What follows are compounds tested on L02 (assay: Antiproliferative activity against human L02 cells after 48 hrs by MTT assay). Conditions: L02, 48 h.
Format: cell-based
Work on `N#CC1=C(N)Oc2c(N)cc3nc4ccccc4nc3c2C12C(=O)N(Cc1cnnn1-c1c(Cl)cc(Cl)cc1Cl)c1ccccc12` (centres undefined) yielded an IC50 of over 50 µM. For `Cc1ccc(-n2nncc2CN2C(=O)C3(C(C#N)=C(N)Oc4c3c3nc5ccccc5nc3c3ccccc43)c3ccccc32)cc1C` (centres undefined), the IC50 was over 50 µM. `Cc1ccc(-n2nncc2CN2C(=O)C3(C(C#N)=C(N)Oc4c3c3nc5ccccc5nc3c3ccccc43)c3ccccc32)cc1Cl` (centres undefined) showed an IC50 of over 50 µM. With `N#CC1=C(N)Oc2c(c3nc4ccccc4nc3c3ccccc23)C12C(=O)N(Cc1cnnn1-c1cccc(Br)c1)c1ccccc12` (centres undefined) the IC50 was over 50 µM. For `Cc1ccc(Cl)cc1-n1nncc1CN1C(=O)C2(C(C#N)=C(N)Oc3c(N)cc4nc5ccccc5nc4c32)c2ccccc21` (centres undefined), the IC50 was over 50 µM. Compound `N#CC1=C(N)Oc2c(c3nc4ccccc4nc3c3ccccc23)C12C(=O)N(Cc1cnnn1-c1ccc(Br)cc1)c1ccccc12` (centres undefined) has an IC50 of over 50 µM. In the case of `CC(=O)Nc1ccc(-n2nncc2CN2C(=O)C3(C(C#N)=C(N)Oc4c3c3nc5ccccc5nc3c3ccccc43)c3ccccc32)cc1` (centres undefined), the IC50 is reported as over 50 µM. With `COc1ccccc1-n1nncc1CN1C(=O)C2(C(C#N)=C(N)Oc3c2c2nc4ccccc4nc2c2ccccc32)c2ccccc21` (centres undefined) the IC50 was over 50 µM. `Cc1ccc(-n2nncc2CN2C(=O)C3(C(C#N)=C(N)Oc4c(N)cc5nc6ccccc6nc5c43)c3ccccc32)cc1Cl` (centres undefined) was tested, and the IC50 was over 50 µM.

The compounds below were run on HCT-116 (assay: Antiproliferative activity against human HCT116 cells after 48 hrs by MTT assay). Conditions: HCT-116, 48 h.
Format: functional, cell-based
With `N#CC1=C(N)Oc2c(N)cc3nc4ccccc4nc3c2C12C(=O)N(Cc1cnnn1-c1c(Cl)cc(Cl)cc1Cl)c1ccccc12` (centres undefined) the IC50 was 12.1 µM. For `Cc1ccc(-n2nncc2CN2C(=O)C3(C(C#N)=C(N)Oc4c3c3nc5ccccc5nc3c3ccccc43)c3ccccc32)cc1C` (centres undefined), the IC50 was over 50 µM. Compound `Cc1ccc(-n2nncc2CN2C(=O)C3(C(C#N)=C(N)Oc4c3c3nc5ccccc5nc3c3ccccc43)c3ccccc32)cc1Cl` (centres undefined) has an IC50 of over 50 µM. For `N#CC1=C(N)Oc2c(c3nc4ccccc4nc3c3ccccc23)C12C(=O)N(Cc1cnnn1-c1cccc(Br)c1)c1ccccc12` (centres undefined), the IC50 was over 50 µM. `Cc1ccc(Cl)cc1-n1nncc1CN1C(=O)C2(C(C#N)=C(N)Oc3c(N)cc4nc5ccccc5nc4c32)c2ccccc21` (centres undefined) gave an IC50 of 37.2 µM. `N#CC1=C(N)Oc2c(c3nc4ccccc4nc3c3ccccc23)C12C(=O)N(Cc1cnnn1-c1ccc(Br)cc1)c1ccccc12` (centres undefined) gave an IC50 of over 50 µM. `CC(=O)Nc1ccc(-n2nncc2CN2C(=O)C3(C(C#N)=C(N)Oc4c3c3nc5ccccc5nc3c3ccccc43)c3ccccc32)cc1` (centres undefined) showed an IC50 of over 50 µM. Compound `COc1ccccc1-n1nncc1CN1C(=O)C2(C(C#N)=C(N)Oc3c2c2nc4ccccc4nc2c2ccccc32)c2ccccc21` (centres undefined) has an IC50 of over 50 µM. Compound `Cc1ccc(-n2nncc2CN2C(=O)C3(C(C#N)=C(N)Oc4c(N)cc5nc6ccccc6nc5c43)c3ccccc32)cc1Cl` (centres undefined) has an IC50 of over 50 µM.

What follows are compounds tested on MCF7 (assay: Antiproliferative activity against human MCF7 cells after 48 hrs by MTT assay). Conditions: MCF7, 48 h.
Format: functional, cell-based
Compound `N#CC1=C(N)Oc2c(N)cc3nc4ccccc4nc3c2C12C(=O)N(Cc1cnnn1-c1c(Cl)cc(Cl)cc1Cl)c1ccccc12` (centres undefined) has an IC50 of 37.8 µM. Work on `Cc1ccc(-n2nncc2CN2C(=O)C3(C(C#N)=C(N)Oc4c3c3nc5ccccc5nc3c3ccccc43)c3ccccc32)cc1C` (centres undefined) yielded an IC50 of over 50 µM. Compound `Cc1ccc(-n2nncc2CN2C(=O)C3(C(C#N)=C(N)Oc4c3c3nc5ccccc5nc3c3ccccc43)c3ccccc32)cc1Cl` (centres undefined) has an IC50 of over 50 µM. In the case of `N#CC1=C(N)Oc2c(c3nc4ccccc4nc3c3ccccc23)C12C(=O)N(Cc1cnnn1-c1cccc(Br)c1)c1ccccc12` (centres undefined), the IC50 is reported as over 50 µM. In the case of `Cc1ccc(Cl)cc1-n1nncc1CN1C(=O)C2(C(C#N)=C(N)Oc3c(N)cc4nc5ccccc5nc4c32)c2ccccc21` (centres undefined), the IC50 is reported as 43.5 µM. `N#CC1=C(N)Oc2c(c3nc4ccccc4nc3c3ccccc23)C12C(=O)N(Cc1cnnn1-c1ccc(Br)cc1)c1ccccc12` (centres undefined) gave an IC50 of 36.6 µM. For `CC(=O)Nc1ccc(-n2nncc2CN2C(=O)C3(C(C#N)=C(N)Oc4c3c3nc5ccccc5nc3c3ccccc43)c3ccccc32)cc1` (centres undefined), the IC50 was over 50 µM. In the case of `COc1ccccc1-n1nncc1CN1C(=O)C2(C(C#N)=C(N)Oc3c2c2nc4ccccc4nc2c2ccccc32)c2ccccc21` (centres undefined), the IC50 is reported as over 50 µM. `Cc1ccc(-n2nncc2CN2C(=O)C3(C(C#N)=C(N)Oc4c(N)cc5nc6ccccc6nc5c43)c3ccccc32)cc1Cl` (centres undefined) was tested, and the IC50 was over 50 µM.

Each compound was assayed on HepG2 (assay: Antiproliferative activity against human HepG2 cells after 48 hrs by MTT assay). Conditions: HepG2, 48 h.
Format: functional, cell-based
`N#CC1=C(N)Oc2c(N)cc3nc4ccccc4nc3c2C12C(=O)N(Cc1cnnn1-c1c(Cl)cc(Cl)cc1Cl)c1ccccc12` (centres undefined) showed an IC50 of 37.8 µM. `Cc1ccc(-n2nncc2CN2C(=O)C3(C(C#N)=C(N)Oc4c3c3nc5ccccc5nc3c3ccccc43)c3ccccc32)cc1C` (centres undefined) gave an IC50 of over 50 µM. `Cc1ccc(-n2nncc2CN2C(=O)C3(C(C#N)=C(N)Oc4c3c3nc5ccccc5nc3c3ccccc43)c3ccccc32)cc1Cl` (centres undefined) showed an IC50 of over 50 µM. For `N#CC1=C(N)Oc2c(c3nc4ccccc4nc3c3ccccc23)C12C(=O)N(Cc1cnnn1-c1cccc(Br)c1)c1ccccc12` (centres undefined), the IC50 was over 50 µM. Compound `Cc1ccc(Cl)cc1-n1nncc1CN1C(=O)C2(C(C#N)=C(N)Oc3c(N)cc4nc5ccccc5nc4c32)c2ccccc21` (centres undefined) has an IC50 of 17.3 µM. `N#CC1=C(N)Oc2c(c3nc4ccccc4nc3c3ccccc23)C12C(=O)N(Cc1cnnn1-c1ccc(Br)cc1)c1ccccc12` (centres undefined) gave an IC50 of over 50 µM. With `CC(=O)Nc1ccc(-n2nncc2CN2C(=O)C3(C(C#N)=C(N)Oc4c3c3nc5ccccc5nc3c3ccccc43)c3ccccc32)cc1` (centres undefined) the IC50 was over 50 µM. Compound `COc1ccccc1-n1nncc1CN1C(=O)C2(C(C#N)=C(N)Oc3c2c2nc4ccccc4nc2c2ccccc32)c2ccccc21` (centres undefined) has an IC50 of over 50 µM. Compound `Cc1ccc(-n2nncc2CN2C(=O)C3(C(C#N)=C(N)Oc4c(N)cc5nc6ccccc6nc5c43)c3ccccc32)cc1Cl` (centres undefined) has an IC50 of over 50 µM.

What follows are compounds tested on A549 (assay: Antiproliferative activity against human A549 cells after 48 hrs by MTT assay). Conditions: A549, 48 h.
Format: functional, cell-based
`N#CC1=C(N)Oc2c(N)cc3nc4ccccc4nc3c2C12C(=O)N(Cc1cnnn1-c1c(Cl)cc(Cl)cc1Cl)c1ccccc12` (centres undefined) showed an IC50 of over 50 µM. Work on `Cc1ccc(-n2nncc2CN2C(=O)C3(C(C#N)=C(N)Oc4c3c3nc5ccccc5nc3c3ccccc43)c3ccccc32)cc1C` (centres undefined) yielded an IC50 of over 50 µM. `Cc1ccc(-n2nncc2CN2C(=O)C3(C(C#N)=C(N)Oc4c3c3nc5ccccc5nc3c3ccccc43)c3ccccc32)cc1Cl` (centres undefined) showed an IC50 of over 50 µM. `N#CC1=C(N)Oc2c(c3nc4ccccc4nc3c3ccccc23)C12C(=O)N(Cc1cnnn1-c1cccc(Br)c1)c1ccccc12` (centres undefined) showed an IC50 of over 50 µM. Work on `Cc1ccc(Cl)cc1-n1nncc1CN1C(=O)C2(C(C#N)=C(N)Oc3c(N)cc4nc5ccccc5nc4c32)c2ccccc21` (centres undefined) yielded an IC50 of over 50 µM. Compound `N#CC1=C(N)Oc2c(c3nc4ccccc4nc3c3ccccc23)C12C(=O)N(Cc1cnnn1-c1ccc(Br)cc1)c1ccccc12` (centres undefined) has an IC50 of 44.3 µM. `CC(=O)Nc1ccc(-n2nncc2CN2C(=O)C3(C(C#N)=C(N)Oc4c3c3nc5ccccc5nc3c3ccccc43)c3ccccc32)cc1` (centres undefined) gave an IC50 of over 50 µM. `COc1ccccc1-n1nncc1CN1C(=O)C2(C(C#N)=C(N)Oc3c2c2nc4ccccc4nc2c2ccccc32)c2ccccc21` (centres undefined) gave an IC50 of over 50 µM. Compound `Cc1ccc(-n2nncc2CN2C(=O)C3(C(C#N)=C(N)Oc4c(N)cc5nc6ccccc6nc5c43)c3ccccc32)cc1Cl` (centres undefined) has an IC50 of 11.8 µM.
